Results from patent publication EP3492066A1, “COSMETIC PREPARATIONS HAVING A CALMING EFFECT” (Beiersdorf AG, priority 2010, dated 2012).

Key:
Probandinnen [1] = assay: Short stress test (unpleasant pictures, loud drum rhythm) with Self-Assessment Manikin (SAM) rating of nervousness; format: in vivo, Menschen; conditions: im Mittel, compared with Placebo-behandelte Probandinnen
Experimental: Zur Ergänzung der zuvor ermittelten Daten wurde mit den Probandinnen ein kurzer Stresstest durchgeführt, bei dem sie nach einer Anfangsentspannung für 1 min einer schnellen Folge von unangenehmen Bildern (Spinnen, Feuer, etc.) auf einem Fernsehbildschirm ausgesetzt wurden. Die visuellen Reize wurden von einem lauten Trommelrhythmus begleitet. Vor und nach dem Stresstest wurden die Probandinnen gebeten, mit Hilfe eines Self-Assessment Manikins (SAM), [formula] ihre eigene Nervosität zu bewerten.
Beispielhaft sind in Abbildung 2 die Werte des SAM-Fragebogens für Nervosität für 2,6-Dimethyl-7-octen-2-ol und Tetrahydro-6-pentyl-2H-pyran-2-one dargestellt. Abbildung 2 zeigt die Angaben der Probandinnen zu ihrer Nervosität vor und nach dem Stresstest als Differenz (nachher minus vorher).

Probandinnen [2] = assay: Olfactometer test with psychophysiological measurement (blood volume pulse amplitude, heart rate) versus placebo; format: in vivo, Menschen; conditions: for Blutvolumenpuls Amplitude (Abbildung 1): 0,025% Tetrahydro-6-pentyl-2H-pyran-2-one (N=9), 0,075% 2,6-Dimethyl-7-octen-2-ol (N=10), gegenüber Placebokontrolle Propylenglycol (N=10); for Änderung der Herzrate: normalised; for Blutvolumenpuls Amplitude: gegenüber der Placebokontrolle (Propylenglykol), 5 min fragrance by olfactometer
Description: Es wurde in weiteren Tests die beruhigende Wirkung der Duftstoffe 6-Methyl-5-Hepten-2-one, Octan-2-one, Heptan-2-one, Nonan-2-one, 5-hexyldihydro-5-methyl-2(3H)-furanone, Tetrahydro-6-pentyl-2H-pyran-2-one, Octanal und 2,6-Dimethyl-7-octen-2-ol auf den Menschen untersucht. Dazu wurde ein Testdesign gewählt, bei dem mit Hilfe eines Olfaktometers (Burghart) kosmetisch einsetzbare und kommerziell erhältliche Duftstoffe an die Nase des Probanden gebracht wurden. Die Duftstoffe wurden in Propylenglykol (Caelo) gelöst. Als Placebokontrolle wurde entsprechend ebenfalls Propylenglykol eingesetzt
Die Probandinnen wurden in einer bequemen, leicht nach hinten gelehnten Haltung auf einem Sessel platziert. Das Ende des Olfaktometerschlauches wurde im Abstand von etwa 10 cm vor der Nase des Probanden platziert und mit Hilfe eines Stativs fixiert. Der Versuchsaufbau (Nexus, Olfaktometer) wurde von den Probandinnen mit Hilfe einer spanischen Wand abgeschirmt, um die Teilnehmerinnen nicht durch das Messgeschehen abzulenken. Die Messungen fanden in einem hellen, gut gelüfteten, auf 21°C temperierten Raum statt.
An den Untersuchungen nahmen Probandinnen im Alter von 20 bis 40 Jahren teil. Das Durchschnittsalter betrug 31 Jahre. Die Probandinnen besaßen einen BMI zwischen 19 und 25. Die Probandinnen wurden gebeten, einen Tag vor Studienbeginn auf Parfum und Body Lotion zu verzichten. Am Messtag selbst durften die Teilnehmerinnen weder Parfum, noch parfümierte Deoprodukte, Body Lotions, Gesichtscreme, Handcreme und Haarspray benutzen. Sie mussten auf Kaffee, Schwarztee, Fruchtsäfte und Zigaretten verzichten und durften 30 min vor Testbeginn nichts mehr essen und ausschließlich Wasser trinken.
Die Einstellungen am Olfaktometer sahen einen Luftstrom von 4 L/min vor. Die externe Druckluft betrug 2 bar. Die Probandinnen wurden mit den entsprechenden Messelektroden bestückt und akklimatisierten zunächst für 1 min. Diese Zeit wurde gleichzeitig genutzt, um sicherzustellen, dass sich die Elektroden zur Bestimmung psychophysiologischer Parameter in einem schwankungsfreien und messbereiten Zustand befinden. Alle Probandinnen erhielten im Anschluss für 5 min Kontrollluft ohne Duft. Während dieser Zeit sollten alle Probandinnen einen emotional neutralen Zustand erreichen. Anschließend erhielten die Probandinnen für 5 min einen Duftstoff, der so niedrig konzentriert war, dass er nicht unangenehm oder gar stechend empfunden wurde. Alle Duftstoffe wurden in Propylenglykol gelöst. Als Placebokontrolle diente ebenfalls Propylenglykol. Während der gesamten 10 min wurden die psychophysiologischen Messparameter dermale Aktivität, Herzrate und Blutvolumenpuls mit Hilfe des Messgeräts NeXus und der Software Biotrace (Mind Media B.V.) erfasst. Die Differenz zwischen maximalem und minimalem Blutvolumen innerhalb eines Herzzyklus nennt man Blutvolumenpuls Amplitude. Dieser Wert sinkt bei psychischer Belastung ab. Umgekehrt kann ein Anstieg als Entspannungsreaktion interpretiert werden.
Um eine gute Vergleichbarkeit der Messdaten der verschiedenen Testgruppen gewährleisten zu können, wurden die Rohdaten der Messung normiert. Dafür wurde der Mittelwert der BVP Amplitude 1 min vor Duftapplikation von allen anderen Messwerten abgezogen. Die Summe der Differenzen ergibt die Änderung der BVP Amplitude in µV.

| Compound | Stress-vermittelte Änderung der Nervosität (SAM) (Probandinnen [1]) | Blutvolumenpuls Amplitude (Probandinnen [2]) | other results |
| --- | --- | --- | --- |
| CCCCCC1CCCC(=O)O1 (stereo not shown) [Tetrahydro-6-pentyl-2H-pyran-2-one] | geringeren Stress-vermittelten Änderung der Nervosität | Anstieg | Blutvolumenpuls Amplitude (Abbildung 1) (Probandinnen [2]): Anstieg; Änderung der Herzrate (Probandinnen [2]; Duftphase, Zeit 300 s, 0,025% in Propylenglykol): -2,51 bpm; Änderung der Herzrate (Probandinnen [2]; Duftphase, Zeit 315 s, 0,025% in Propylenglykol): -3,27 bpm; Änderung der Herzrate (Probandinnen [2]; Duftphase, Zeit 330 s, 0,025% in Propylenglykol): -2,71 bpm; Änderung der Herzrate (Probandinnen [2]; Duftphase, Zeit 435 s, 0,025% in Propylenglykol): -1,94 bpm; Änderung der Herzrate (Probandinnen [2]; Duftphase, Zeit 540 s, 0,025% in Propylenglykol): -2,91 bpm; Änderung der Herzrate (Probandinnen [2]; Duftphase, Zeit 585 s, 0,025% in Propylenglykol): -2,44 bpm; Änderung der Herzrate (Probandinnen [2]; Kontrollluft (before fragrance application), Zeit 30 s, 0,025% group): -1,26 bpm; Änderung der Herzrate (Probandinnen [2]; Kontrollluft (before fragrance application), Zeit 90 s, 0,025% group): -1,26 bpm; Änderung der Herzrate (Probandinnen [2]; Kontrollluft (before fragrance application), Zeit 135 s, 0,025% group): -1,65 bpm; Änderung der Herzrate (Probandinnen [2]; Kontrollluft (before fragrance application), Zeit 180 s, 0,025% group): -2,16 bpm; Änderung der Herzrate (Probandinnen [2]; Kontrollluft (before fragrance application), Zeit 225 s, 0,025% group): -0,63 bpm; Änderung der Herzrate (Probandinnen [2]; Kontrollluft (before fragrance application), Zeit 285 s, 0,025% group): -0,02 bpm; Herzrate (Probandinnen [2]; result in words, im Vergleich zur Placebokontrolle, after fragrance application): Senkung der Herzrate |
| CCCCCCCC=O [Octanal] | geringeren Stress-vermittelten Änderung der Nervosität | Beruhigungs- bzw. Entspannungsreaktion |  |
| CCCCCCCC(C)=O [Nonan-2-one] | geringeren Stress-vermittelten Änderung der Nervosität | Beruhigungs- bzw. Entspannungsreaktion |  |
| CCCCCCC1(C)CCC(=O)O1 (stereo not shown) [5-hexyldihydro-5-methyl-2(3H)-furanone] | geringeren Stress-vermittelten Änderung der Nervosität | Beruhigungs- bzw. Entspannungsreaktion |  |
| CC(=O)CCC=C(C)C [6-Methyl-5-Hepten-2-one] | geringeren Stress-vermittelten Änderung der Nervosität | Beruhigungs- bzw. Entspannungsreaktion |  |
| C=CC(C)CCCC(C)(C)O (stereo not shown) [2,6-Dimethyl-7-octen-2-ol] | geringeren Stress-vermittelten Änderung der Nervosität | Anstieg | Blutvolumenpuls Amplitude (Abbildung 1) (Probandinnen [2]): Anstieg |
| CCCCCCC(C)=O [Octan-2-one] | geringeren Stress-vermittelten Änderung der Nervosität | Beruhigungs- bzw. Entspannungsreaktion |  |
| CCCCCC(C)=O [Heptan-2-one] | geringeren Stress-vermittelten Änderung der Nervosität | Beruhigungs- bzw. Entspannungsreaktion |  |
